Experiments:
[1] = compound: C1CN(CCC1(C(=O)N[C@@H](CCO)C2=CC=C(C=C2)Cl)N)C3=NC=NC4=C3C=CN4 [Capivasertib]
How it was run: (§1)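 Plates with 1536 wells received cancer cell lines in 7.5 μl of DMEM/F12 or RPMI containing 10% FBS. After 24 hours at 37°C and 5% CO2, cells were dosed for 72 hours with final DMSO typically 0.2%, and viability was read by CellTiter-Glo 2.0 luminescence scaled between blank-well and DMSO-well means. The single-agent IC50 was taken from a logistic fit of the dose responses made with a non-linear mixed effects model, that logistic curve having two parameters.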

[2] = compound: C=CCn1c(=O)c2cnc(Nc3ccc(N4CCN(C)CC4)cc3)nc2n1-c1cccc(C(C)(C)O)n1 [AZD1775]; conditions: max 3 µM
How it was run: as §1

[3] = compound: CC(=O)Nc1cccc(-n2c(=O)n(C3CC3)c(=O)c3c(Nc4ccc(I)cc4F)n(C)c(=O)c(C)c32)c1 [Trametinib]; conditions: max 1 µM
How it was run: as §1

[4] = compound: CC(=O)c1c(C)c2cnc(Nc3ccc(N4CCNCC4)cn3)nc2n(C2CCCC2)c1=O [Palbociclib]; conditions: max 10 µM
How it was run: as §1

[5] = compound: CC(C)n1c(=O)n(C)c2cnc3cc(F)c(-c4ccc(OCCCN5CCCCC5)nc4)cc3c21 [AZD1390]; conditions: max 0.3 µM
How it was run: as §1

[6] = compound: CC1(C)CCC(CN2CCN(c3ccc(C(=O)NS(=O)(=O)c4ccc(NCC5CCOCC5)c([N+](=O)[O-])c4)c(Oc4cnc5[nH]ccc5c4)c3)CC2)=C(c2ccc(Cl)cc2)C1 [Venetoclax]; conditions: max 1 µM
How it was run: as §1

[7] = compound: CC1=C(C(=CC=C1)Cl)NC(=O)C2=CN=C(S2)NC3=CC(=NC(=N3)C)N4CCN(CC4)CCO [Dasatinib]; conditions: max 2 µM
How it was run: as §1

[8] = compound: CC1=CN2[C@@H](C1)C=NC3=CC(=C(C=C3C2=O)OC)OCCCCCOC4=C(C=C5C(=C4)N=C[C@@H]6CC(=CN6C5=O)C)OC [SG3199]; conditions: max 0.001 µM
How it was run: as §1

[9] = compound: CCN(CCO)CCCOc1ccc2c(Nc3cc(CC(=O)Nc4cccc(F)c4)[nH]n3)ncnc2c1 [AZD2811]; conditions: max 1 µM
How it was run: as §1

[10] = compound: CCc1c2c(nc3ccc(O)cc13)-c1cc3c(c(=O)n1C2)COC(=O)[C@]3(O)CC [SN-38]; conditions: max 0.3 µM
How it was run: as §1

[11] = compound: CN(C)CCCOc1ccc(-c2ccc3ncc4c(c3c2)n(C2CCOCC2)c(=O)n4C)cn1 [AZD0156]; conditions: max 3 µM
How it was run: as §1

[12] = compound: CN(CC[C@H](CSC1=CC=CC=C1)NC2=C(C=C(C=C2)S(=O)(=O)NC(=O)C3=CC=C(C=C3)N4CCC(CC4)[C@H](C5=CC=CC=C5C6=CC=C(C=C6)Cl)O)S(=O)(=O)C(F)(F)F)CCO [AZD4320]; conditions: max 1 µM
How it was run: as §1

[13] = compound: COc1cc(Nc2ncc3c(n2)-c2ccc(Cl)cc2C(c2c(F)cccc2OC)=NC3)ccc1C(=O)O [Alisertib]; conditions: max 10 µM
How it was run: as §1

[14] = compound: COc1cc2ncnc(Nc3ccc(F)c(Cl)c3)c2cc1OCCCN1CCOCC1 [Gefitinib]; conditions: max 10 µM
How it was run: as §1

[15] = compound: COc1cccc(OCCCN)c1-c1cc(Nc2cnc(C#N)cn2)n[nH]1 [Prexasertib]; conditions: max 1 µM
How it was run: as §1

[16] = compound: COc1cccc2c1C(=O)c1c(O)c3c(c(O)c1C2=O)C[C@@](O)(C(=O)CO)C[C@@H]3O[C@H]1C[C@H](N)[C@H](O)[C@H](C)O1 [Doxorubicin]; conditions: max 1 µM
How it was run: as §1

[17] = compound: COc1nnc2ccc(N3CCC(c4ccc(OCCN5CCN(C)C(=O)[C@H]5C)cc4)CC3)nn12 [AZD5153]; conditions: max 1 µM
How it was run: as §1

[18] = compound: CS(=O)(=O)CCNCc1ccc(-c2ccc3ncnc(Nc4ccc(OCc5cccc(F)c5)c(Cl)c4)c3c2)o1 [Lapatinib]; conditions: max 10 µM
How it was run: as §1

[19] = compound: C[C@@H](Nc1cc(F)cc(F)c1)c1cc(C(=O)N(C)C)cc2c(=O)cc(N3CCOCC3)oc12 [AZD8186]; conditions: max 3 µM
How it was run: as §1

[20] = compound: C[C@@H](Oc1cc(-c2cnn(C3CCNCC3)c2)cnc1N)c1c(Cl)ccc(F)c1Cl [Crizotinib]; conditions: max 10 µM
How it was run: as §1

[21] = compound: C[C@@H](c1ccc2nccn2c1)n1nnc2ncc(-c3cnn(C)c3)nc21 [Savolitinib]; conditions: max 1 µM
How it was run: as §1

[22] = compound: C[C@@H]1COCCN1C2=NC(=NC(=C2)C3(CC3)[S@](=N)(=O)C)C4=C5C=CNC5=NC=C4 [AZD6738]; conditions: max 10 µM
How it was run: as §1

[23] = compound: Cc1c2c(nn1C)CSCc1cc(n(C)n1)CSc1cc(c3ccccc3c1)OCCCc1c(C(=O)O)n(C)c3c-2c(Cl)ccc13 [AZD5991]; conditions: max 1 µM
How it was run: as §1

[24] = compound: Cc1cc2ncnn2cc1Nc1ncc2c(n1)n(C1CCOCC1)c(=O)n2C [AZD7648]; conditions: max 10 µM
How it was run: as §1

[25] = compound: Cc1nc(-c2cn3c(n2)-c2ccc(-c4cnn(C(C)(C)C(N)=O)c4)cc2OCC3)n(C(C)C)n1 [Taselisib]; conditions: max 10 µM
How it was run: as §1

[26] = compound: Cn1cnc2c(F)c(Nc3ccc(Br)cc3Cl)c(C(=O)NOCCO)cc21 [Selumetinib]; conditions: max 10 µM
How it was run: as §1

[27] = compound: O=C(c1cc(Cc2n[nH]c(=O)c3ccccc23)ccc1F)N1CCN(C(=O)C2CC2)CC1 [Olaparib]
How it was run: as §1

Cell Line | IC50, cell viability 72 h ([1]; max 10 µM) [µM] | IC50, cell viability 72 h [2] [µM] | IC50, cell viability 72 h [3] [µM] | IC50, cell viability 72 h [4] [µM] | IC50, cell viability 72 h [5] [µM] | IC50, cell viability 72 h [6] [µM] | IC50, cell viability 72 h [7] [µM] | IC50, cell viability 72 h [8] [µM] | IC50, cell viability 72 h [9] [µM] | IC50, cell viability 72 h [10] [µM] | IC50, cell viability 72 h [11] [µM] | IC50, cell viability 72 h [12] [µM] | IC50, cell viability 72 h [13] [µM] | IC50, cell viability 72 h [14] [µM] | IC50, cell viability 72 h [15] [µM] | IC50, cell viability 72 h [16] [µM] | IC50, cell viability 72 h [17] [µM] | IC50, cell viability 72 h [18] [µM] | IC50, cell viability 72 h [19] [µM] | IC50, cell viability 72 h [20] [µM] | IC50, cell viability 72 h [21] [µM] | IC50, cell viability 72 h [22] [µM] | IC50, cell viability 72 h [23] [µM] | IC50, cell viability 72 h [24] [µM] | IC50, cell viability 72 h [25] [µM] | IC50, cell viability 72 h [26] [µM] | IC50, cell viability 72 h ([27]; max 10 µM) [µM] | IC50, cell viability 72 h ([1]; max 3 µM) [µM] | IC50, cell viability 72 h ([27]; max 3 µM) [µM]
CTV-1 (T-Lymphoblastic Leukemia) | 5.88 | 0.28 | > 1 | 1.47 | > 0.3 | > 1 | < 0.002 | > 0.001 | > 1 | 0.00352 | > 3 | > 1 | 0.199 | 4.93 | 0.00728 | 0.0456 | 0.0575 | > 10 | > 3 | 0.371 | > 1 | 3.92 | > 1 | > 10 | 3.17 | > 10 | > 10 | – | –
HCC2157 (Breast Carcinoma) | 0.307 | > 3 | > 1 | > 10 | > 0.3 | > 1 | > 2 | > 0.001 | 0.182 | 0.0141 | > 3 | 0.0721 | 0.454 | 4.41 | 0.0225 | > 1 | 0.0126 | 0.0602 | 0.667 | 4.09 | > 1 | 2.49 | 0.0244 | > 10 | 0.222 | > 10 | > 10 | – | –
SNU-C5 (Colorectal Carcinoma) | > 10 | 0.507 | 0.563 | > 10 | > 0.3 | > 1 | > 2 | > 0.001 | > 1 | 0.0435 | > 3 | > 1 | 9.36 | > 10 | 0.0218 | > 1 | 0.578 | > 10 | > 3 | > 10 | > 1 | 4 | > 1 | > 10 | 2.01 | > 10 | > 10 | – | –
C3A (Hepatocellular Carcinoma) | > 10 | 2.48 | 0.657 | > 10 | > 0.3 | > 1 | > 2 | > 0.001 | > 1 | 0.143 | > 3 | > 1 | > 10 | > 10 | 0.524 | > 1 | > 1 | > 10 | > 3 | > 10 | > 1 | > 10 | > 1 | > 10 | > 10 | 7.96 | > 10 | – | –
LU-99A (Non-Small Cell Lung Carcinoma) | > 10 | > 3 | 0.163 | > 10 | > 0.3 | > 1 | 1.51 | > 0.001 | > 1 | 0.0397 | > 3 | > 1 | > 10 | > 10 | 0.0771 | 0.577 | > 1 | > 10 | > 3 | > 10 | > 1 | > 10 | > 1 | > 10 | 3.08 | > 10 | > 10 | – | –
NCI-H1781 (Lung Adenocarcinoma) | 7.07 | 0.839 | > 1 | > 10 | > 0.3 | > 1 | > 2 | > 0.001 | 0.583 | 0.00506 | > 3 | > 1 | 1.77 | 5.37 | 0.709 | 0.107 | > 1 | 8.92 | > 3 | > 10 | > 1 | > 10 | > 1 | > 10 | 2.11 | > 10 | > 10 | – | –
JiyoyeP-2003 (Burkitt's Lymphoma) | 2.32 | 0.597 | > 1 | 4.7 | > 0.3 | > 1 | 1.02 | > 0.001 | > 1 | 0.0141 | > 3 | 0.403 | 0.271 | > 10 | 0.0117 | 0.172 | 0.0492 | > 10 | > 3 | > 10 | > 1 | 1.37 | 0.814 | > 10 | 9.67 | > 10 | > 10 | – | –
BB49-HNC (Head and Neck Carcinoma) | – | 0.309 | – | – | – | – | – | – | – | – | > 3 | – | – | – | – | – | – | – | – | – | – | – | – | – | – | – | – | 1.99 | > 3
NB(TU)1-10 (Neuroblastoma) | – | 0.835 | – | – | – | – | – | > 0.001 | > 1 | 0.017 | > 3 | – | – | – | 0.00806 | 0.468 | – | – | – | – | – | 6.88 | – | > 10 | – | – | > 10 | > 3 | –

Reference: the supplement of paper PMC11061612
